Assay results published in patent US20240108004A1, “METHOD FOR CONTROLLING INSECTS IN CROP PLANTS, SEEDS AND COMPOSITION” (Nippon Soda Co., Ltd., priority 2021, published 2024).

Tests used:
[1] = test system: wire worm (Agriotes sp.) larvae; assay: Efficacy test of corn seed treatment against Agriotes sp.; type: in vivo; conditions: corn seeds coated, 42 days; for Healthy stock ratio: 50 g compound per 50,000 seeds, 12 larvae per 12-seed container, outdoors
From the text: Efficacy test of corn seed treatment against Agriotes sp.
(§1) The compound (1) (30 parts), tristyryl-based surfactant (6.0 parts), dioctylsulfosuccinate metal salt (1.5 parts), silicone-based defoamer (1.2 parts), xanthan gum (0.2 parts), 1,2-benzisothiazolin-3-one (0.1 parts), propylene glycol (5.0 parts), and water (56 parts) were mixed to prepare a reagent solution.
Corn seeds were coated with the reagent solution so that the treatment amount of the compound (1) was 50 g per 50,000 seeds.
Further, corn seeds were similarly coated with tefluthrin as a control agent so that the treatment amount was 10 g per 50,000 seeds.
The treated seeds were planted in a 12-seed container and inoculated with 12 wire worm (Agriotes sp.) larvae. The container was placed outdoors, and 42 days later, the number of healthy stocks and the number of damaged stocks were investigated to determine the efficacy. The test was repeated 4 times.
The healthy stock ratio was calculated using the following formula.
Healthy stock ratio (%)=100×(number of healthy stocks/number of seeds)

Phyllotreta striolata = assay: Efficacy test of rape seed treatment against Phyllotreta striolata; type: in vivo; conditions: rape seeds coated, 10 g per 100 kg of seeds; inoculated 14 days after planting; 6 days after releasing the insects; 25° C., humidity 65%
From the text: Efficacy test of rape seed treatment against Phyllotreta striolata
as §1, with “(I)” for “(1)”
Rape seeds were coated with the reagent solution so that the treatment amount of the compound (I) was 10 g per 100 kg of seeds.
The treated seeds were planted in a 10-seed pot and raised in a greenhouse for 14 days. After that, each pot was inoculated with 5 Phyllotreta striolata. The pots were stored in a constant temperature room at a temperature of 25° C. and at a humidity of 65%.
The life/death determination was made 6 days after releasing the insects, and the insecticidal rate was calculated by the following formula. The test was repeated 3 times.
Insecticidal rate (%)=(number of dead insects/number of test insects)×100

Structure (SMILES) | healthy stock rate ([1]; control agent, 10 g per 50,000 seeds) | Healthy stock ratio [1] | Insecticidal rate (Phyllotreta striolata) | Healthy stock ratio ([1]; unit not given)
Cc1c(F)c(F)c(COC(=O)[C@@H]2[C@H](/C=C(\Cl)C(F)(F)F)C2(C)C)c(F)c1F (racemic) [tefluthrin, reference compound] | 62.5% |  |  | 
CCS(=O)(=O)c1cc(C2CC2)cnc1-c1ncc(C=C(Cl)C(F)(F)F)n1C [formula (II)] |  | 83.3% | 100% | 
CCS(=O)(=O)c1cc(C2CC2)cnc1-c1ncc(C(F)C(F)(C(F)(F)F)C(F)(F)F)n1C (centres unmarked) [formula (III)] |  |  | 100% | 81.3
